Results from ChEMBL document CHEMBL6182899, “Shooting an Arrow against Convulsion: Novel Triazole-Grafted Benzenesulfonamide Derivatives as Carbonic Anhydrase II and VII Inhibitors” (J Med Chem, 2025).

Species on record: Mus musculus
Test: animal or person
Conditions: 24 h

CCCC(CCC)C(=O)O [VALPROIC ACID]
survival at 100 mg/kg: 80%
